In PubChem BioAssay (NCI):
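Cultured in 96-well plates, cells were exposed to test compound for 48 hours across five concentrations. GI50 is the concentration that inhibits growth by half. TGI marks complete inhibition of growth.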

Key:
Assay in all cases: NCI anticancer screen, dose series, 48 h
MOLT-4 leukemia = system: MOLT-4 leukemia
UACC-257 melanoma = system: UACC-257 melanoma
HT29 colon = system: HT29 colon
SW-620 colon = system: SW-620 colon
HOP-92 NSCLC = system: HOP-92 NSCLC
PC-3 prostate = system: PC-3 prostate
SN12C renal = system: SN12C renal
OVCAR-8 ovarian = system: OVCAR-8 ovarian
786-0 renal = system: 786-0 renal
A549 NSCLC = system: A549 NSCLC

In the case of `COC(=O)c1c2c(c(C)[n+]([O-])c1C)C(=O)C(NCc1ccc(F)c(Cl)c1)=CC2=O`, the GI50 (MOLT-4 leukemia) was 2.42 µM, the TGI (MOLT-4 leukemia) was 7.2 µM and the GI50 (UACC-257 melanoma) was 1.28 µM. For the same molecule, the TGI (UACC-257 melanoma) was 3.1 µM, the GI50 (HT29 colon) was 1.35 µM and the TGI (HT29 colon) was over 100 µM. The GI50 (SW-620 colon) was 2.21 µM, the TGI (SW-620 colon) was 7.12 µM and the GI50 (HOP-92 NSCLC) was 2.52 µM. It also gave a TGI (HOP-92 NSCLC) of 5.79 µM, a GI50 (PC-3 prostate) of 2.27 µM and a TGI (PC-3 prostate) of 12.9 µM. The GI50 (SN12C renal) was 1.52 µM, the TGI (SN12C renal) was 3.66 µM and the GI50 (OVCAR-8 ovarian) was 2.38 µM. The TGI (OVCAR-8 ovarian) was 13.9 µM, the GI50 (786-0 renal) was 3.1 µM and the TGI (786-0 renal) was 22.7 µM. For the same molecule, the GI50 (A549 NSCLC) was 2.23 µM and the TGI (A549 NSCLC) was 8.15 µM.
With `Cc1ccc(NC2=C(Cl)C(=O)c3nc(C)ccc3C2=O)cc1` the GI50 (MOLT-4 leukemia) was 2.52 µM, the TGI (MOLT-4 leukemia) was over 100 µM and the GI50 (UACC-257 melanoma) was 1.58 µM. It also gave a TGI (UACC-257 melanoma) of 3 µM, a GI50 (HT29 colon) of 2.79 µM and a TGI (HT29 colon) of 8.46 µM. It also gave a GI50 (SW-620 colon) of 1.74 µM, a TGI (SW-620 colon) of 3.7 µM and a GI50 (HOP-92 NSCLC) of 1.4 µM. For the same molecule, the TGI (HOP-92 NSCLC) was 2.93 µM, the GI50 (PC-3 prostate) was 1.19 µM and the TGI (PC-3 prostate) was 2.78 µM. It also gave a GI50 (SN12C renal) of 1.37 µM, a TGI (SN12C renal) of 2.85 µM and a GI50 (OVCAR-8 ovarian) of 1.47 µM. The TGI (OVCAR-8 ovarian) was 3.14 µM, the GI50 (786-0 renal) was 1.75 µM and the TGI (786-0 renal) was 3.23 µM. It also gave a GI50 (A549 NSCLC) of 1.81 µM and a TGI (A549 NSCLC) of 4.39 µM.
In the case of `Cc1oc2c(c1C(=O)c1ccccc1)C(=O)c1ccccc1C2=O`, the TGI (MOLT-4 leukemia) was 6.38 µM, the TGI (UACC-257 melanoma) was 10.5 µM and the TGI (HT29 colon) was 39.6 µM. For the same molecule, the TGI (SW-620 colon) was 4.59 µM, the TGI (HOP-92 NSCLC) was 4.65 µM and the TGI (PC-3 prostate) was 21.7 µM. The TGI (SN12C renal) was 25.2 µM, the TGI (OVCAR-8 ovarian) was 18.6 µM and the TGI (786-0 renal) was 10.6 µM. The TGI (A549 NSCLC) was 40.2 µM.
`O=C(Oc1ccc([N+](=O)[O-])cc1)N1CCC(C(O)(c2ccc3c(c2)OCO3)c2ccc3c(c2)OCO3)CC1` showed a GI50 (MOLT-4 leukemia) of over 100 µM, a TGI (MOLT-4 leukemia) of over 100 µM and a GI50 (UACC-257 melanoma) of over 100 µM. For the same molecule, the TGI (UACC-257 melanoma) was over 100 µM, the GI50 (HT29 colon) was over 100 µM and the TGI (HT29 colon) was over 100 µM. For the same molecule, the GI50 (SW-620 colon) was over 100 µM, the TGI (SW-620 colon) was over 100 µM and the GI50 (HOP-92 NSCLC) was over 52.3 µM. For the same molecule, the TGI (HOP-92 NSCLC) was over 100 µM, the GI50 (PC-3 prostate) was over 100 µM and the TGI (PC-3 prostate) was over 100 µM. It also gave a GI50 (SN12C renal) of over 100 µM, a TGI (SN12C renal) of over 100 µM and a GI50 (OVCAR-8 ovarian) of over 100 µM. The TGI (OVCAR-8 ovarian) was over 100 µM, the GI50 (786-0 renal) was over 100 µM and the TGI (786-0 renal) was over 100 µM. The GI50 (A549 NSCLC) was over 100 µM and the TGI (A549 NSCLC) was over 100 µM.
For `O=C(O)[C@@H]1C[C@@H](O)CN1`, the TGI (MOLT-4 leukemia) was over 100 µM, the TGI (UACC-257 melanoma) was over 100 µM and the TGI (HT29 colon) was over 100 µM. For the same molecule, the TGI (SW-620 colon) was over 100 µM, the TGI (HOP-92 NSCLC) was over 100 µM and the TGI (PC-3 prostate) was over 100 µM. The TGI (SN12C renal) was over 100 µM, the TGI (OVCAR-8 ovarian) was over 100 µM and the TGI (786-0 renal) was over 100 µM. For the same molecule, the TGI (A549 NSCLC) was over 100 µM.
Molecule `O=C(N/N=C/c1cc2ccccc2c2ccccc12)c1cc(O)c(O)c(O)c1` has a GI50 (MOLT-4 leukemia) of 3.8 µM, a TGI (MOLT-4 leukemia) of 18.2 µM and a GI50 (UACC-257 melanoma) of 10.2 µM. The TGI (UACC-257 melanoma) was 24.6 µM, the GI50 (HT29 colon) was 9.95 µM and the TGI (HT29 colon) was 31 µM. The GI50 (SW-620 colon) was 2.96 µM, the TGI (SW-620 colon) was 12.4 µM and the GI50 (HOP-92 NSCLC) was 2.1 µM. For the same molecule, the TGI (HOP-92 NSCLC) was 7.19 µM, the GI50 (PC-3 prostate) was 3.28 µM and the TGI (PC-3 prostate) was 15.6 µM. The GI50 (SN12C renal) was 4.99 µM, the TGI (SN12C renal) was 30 µM and the GI50 (OVCAR-8 ovarian) was 3.72 µM. The TGI (OVCAR-8 ovarian) was 15.6 µM, the GI50 (786-0 renal) was 2.77 µM and the TGI (786-0 renal) was 7.2 µM. The GI50 (A549 NSCLC) was 12.7 µM and the TGI (A549 NSCLC) was 39.2 µM.
Molecule `C=CC(=O)Nc1cc2c(Nc3ccc(OCc4ccccn4)c(Cl)c3)ncnc2cc1OCCN1CCOCC1` has a GI50 (MOLT-4 leukemia) of 3.02 µM, a TGI (MOLT-4 leukemia) of over 85.1 µM and a GI50 (UACC-257 melanoma) of 10.6 µM. It also gave a TGI (UACC-257 melanoma) of over 100 µM, a GI50 (HT29 colon) of 4.04 µM and a TGI (HT29 colon) of over 100 µM. The GI50 (SW-620 colon) was 2.99 µM, the TGI (SW-620 colon) was 20.7 µM and the GI50 (HOP-92 NSCLC) was 1.02 µM. For the same molecule, the TGI (HOP-92 NSCLC) was 9.06 µM, the GI50 (PC-3 prostate) was 4.28 µM and the TGI (PC-3 prostate) was over 100 µM. The GI50 (SN12C renal) was 1.49 µM, the TGI (SN12C renal) was over 100 µM and the GI50 (OVCAR-8 ovarian) was 5.26 µM. It also gave a TGI (OVCAR-8 ovarian) of over 100 µM, a GI50 (786-0 renal) of 1.7 µM and a TGI (786-0 renal) of over 83.3 µM. It also gave a GI50 (A549 NSCLC) of 6.4 µM and a TGI (A549 NSCLC) of over 100 µM.
Work on `Nc1ccc(-c2ccc(-c3nc4ccccc4[nH]3)cc2)cc1` yielded a GI50 (MOLT-4 leukemia) of 9.94 µM, a TGI (MOLT-4 leukemia) of over 58.2 µM and a GI50 (UACC-257 melanoma) of 1.11 µM. For the same molecule, the TGI (UACC-257 melanoma) was over 100 µM, the GI50 (HT29 colon) was 0.606 µM and the TGI (HT29 colon) was 21.6 µM. The GI50 (SW-620 colon) was under 0.0506 µM, the TGI (SW-620 colon) was over 100 µM and the GI50 (HOP-92 NSCLC) was 18.6 µM. For the same molecule, the TGI (HOP-92 NSCLC) was 71.2 µM, the GI50 (PC-3 prostate) was 14.1 µM and the TGI (PC-3 prostate) was 56.8 µM. For the same molecule, the GI50 (SN12C renal) was 19.6 µM, the TGI (SN12C renal) was over 100 µM and the GI50 (OVCAR-8 ovarian) was 14.1 µM. It also gave a TGI (OVCAR-8 ovarian) of 97.5 µM, a GI50 (786-0 renal) of 8.78 µM and a TGI (786-0 renal) of 84.9 µM. It also gave a TGI (A549 NSCLC) of over 95.5 µM.
`COc1cc(/C=C2\C(=O)N(c3c(Cl)cccc3Cl)c3ccccc32)cc(OC)c1O` was tested, and the GI50 (MOLT-4 leukemia) was 0.455 µM, the TGI (MOLT-4 leukemia) was 20.4 µM and the GI50 (UACC-257 melanoma) was 2.19 µM. For the same molecule, the TGI (UACC-257 melanoma) was 19.6 µM, the GI50 (HT29 colon) was 2.17 µM and the TGI (HT29 colon) was 8.62 µM. For the same molecule, the GI50 (SW-620 colon) was 0.702 µM, the TGI (SW-620 colon) was 16.2 µM and the GI50 (HOP-92 NSCLC) was 1.97 µM. For the same molecule, the TGI (HOP-92 NSCLC) was 11 µM, the GI50 (PC-3 prostate) was 1.44 µM and the TGI (PC-3 prostate) was 27.1 µM. It also gave a GI50 (SN12C renal) of 1.01 µM, a TGI (SN12C renal) of 17.6 µM and a GI50 (OVCAR-8 ovarian) of 0.442 µM. The TGI (OVCAR-8 ovarian) was 19.8 µM, the GI50 (786-0 renal) was 1.49 µM and the TGI (786-0 renal) was 17.4 µM. The GI50 (A549 NSCLC) was 1.24 µM and the TGI (A549 NSCLC) was 10.1 µM.
Work on `CCC(=S)N(C)O` yielded a TGI (MOLT-4 leukemia) of 46.9 µM, a TGI (UACC-257 melanoma) of over 100 µM and a TGI (HT29 colon) of 24.1 µM. The TGI (SW-620 colon) was over 100 µM, the TGI (HOP-92 NSCLC) was over 100 µM and the TGI (PC-3 prostate) was over 100 µM. The TGI (SN12C renal) was over 100 µM, the TGI (OVCAR-8 ovarian) was over 97.1 µM and the TGI (786-0 renal) was over 81.1 µM. The TGI (A549 NSCLC) was over 100 µM.
